# Results published in patent US20130303788A1, “METHOD OF PRODUCING BIPHENOLIC COMPOUND, NOVEL BIPHENYL COMPOUND AND SYNTHESIS METHOD THEREOF, AND PHARMACEUTICAL COMPOSITION FOR TREATING PARKINSON'S DISEASE” (Tzu Chi University, priority 2012, published 2013).
# Experiments:
# [1] = system: excitotoxicity induced by excitatory amino acids; conditions: Lin Yi-Ruu et al. (2006); cited from earlier work
# [2] = system: mouse model of PD (6-OHDA unilateral striatal lesion); experiment: Apomorphine-induced rotation test in 6-OHDA mouse model of PD; assay type: in vivo, NMRI mice
# Method: The respective NMRI mouse was anesthetized with ketamine ([…], intraperitoneally). Subsequently, the respective NMRI mouse was placed into a stereotactic frame with nose and ear bars specially designed for mice. 6-hydroxydopamine (6-OHDA) was injected with saline containing 0.02% ascorbic acid (as a vehicle) into the right striatum of the respective NMRI mouse so that unilateral striatal lesion was induced (i.e., damage to dopaminergic neurons in the unilateral striatum was induced). The injection was conducted at a rate of 1 μL/minute using a Hamilton syringe at the following coordinates: AP: −0.9 mm; ML: −1.9 mm; DV: −2.2 mm with respect to bregma, and a final dose of 15 μg was administered. The needle was left standing for 5 minutes after the injection was finished, and was slowly withdrawn.
# The respective NMRI mouse was allowed to habituate to the ambient environment for 10 minutes before the apomorphine-induced rotation test was performed. Apomorphine was then injected intraperitoneally into the respective NMRI mouse at a dose of 0.5 mg/kg. The respective NMRI mouse was placed in a glass bowl with a diameter of 20 cm and was attached to an automatic rotometer (TSE, Bad Homburg, Germany) via a specially designed harness. Each circular movement exceeding 30° was recorded. The contralateral movements (toward the nonlesioned side) and ipsilateral movements (toward the lesioned side) of the NMRI mice were counted during a period of 60 minutes. The net rotation was calculated according to the following formula:
# where A=net rotation • B=the total number of ipsilateral movements during the period of 60 minutes • C=the total number of contralateral movements during the period of 60 minutes 4. Determination of TH (Tyrosine Hydroxylase) Expression Level and iNOS (Inducible Nitric Oxide Synthase) Expression Level: […]
# 6-OHDA was injected into NMRI mice according to the method as described in section 2 of General procedures. Product 1 or product 2 was administered intraperitoneally to the respective NMRI mouse at a dose of 5 mg/kg, 1 mg/kg, 0.5 mg/kg, 0.1 mg/kg, or 0.05 mg/kg for 14 consecutive days, starting on Day 7 after the 6-OHDA injection. NMRI mice into which a vehicle (saline containing 0.02% ascorbic acid) was injected (generally according to the method as described in section 2 of General Procedures, except that 6-OHDA was not injected), and which were not treated with product 1 or product 2 after the injection of the vehicle, served as a sham operated control. NMRI mice into which 6-OHDA was injected and which were not treated with product 1 or product 2 after the 6-OHDA injection served as a pathological control. The rotational behavior of the NMRI mice was evaluated using the apomorphine-induced rotation test as described in section 3 of General Procedures on Days 7, 14, and 21 after the 6-OHDA injection.
# [3] = system: SH-SY5Y human neuroblastoma cells; experiment: Effects on oxidative stress (TBHP or CHP), MTT assay; assay type: cell-based; conditions: 10 μM for 30 minutes, then CHP 300 μM for 3 hours; vs pathological control; FIG. 9
# Method: 3-(4,5-Dimethylthiazol-2-yl)-2,5-diphenyltetrazolium bromide (MTT) assay was conducted generally as follows. A MTT solution was added to culture of the cells in the respective well so that a MTT concentration of 0.5 mg/mL was reached, followed by cultivation for 4 hours. The liquid in the respective well was removed, and dimethylsulfoxide (DMSO) was added into the respective well to dissolve formazan dye. Absorbance of the mixture in the respective well at 570 nm (OD570) was measured using an OPTImax microplate reader (Molecular Devices).
# The SH-SY5Y human neuroblastoma cells were respectively treated with products 1, 2, 3, 4, 5, 7, and 3,3′-diallyl-biphenyl-4,4′-diol (compound 55) (10 μM) for 30 minutes. 3,3′-diallyl-biphenyl-4,4′-diol (compound 55) was prepared from commercially available 4,4′-biphenol (compound 54) generally according to the method as described in Ablard, F. et al., Bioorg. Med. Chem. Lett. 2007, 17, 4428. Subsequently, the SH-SY5Y human neuroblastoma cells were exposed to cumene hydroperoxide (CHP) or tert-butyl hydroperoxide (TBHP) (300 μM, Riedel-de Haen) for 3 hours after the treatment with the respective biphenolic compound of formula (I).
# Cell viability was evaluated as follows. The SH-SY5Y human neuroblastoma cells were subjected to the MTT assay as described in section 1 of General Procedures. The relative cell viability (%) was calculated by substituting the absorbance into the following formula:
# where D=relative cell viability • E=OD570 of the pathological control, or the SH-SY5Y human neuroblastoma cells treated with the respective biphenolic compound of formula (I) • F=OD570 of the normal control The obtained data were subjected to the statistical analysis as described in section 5 of General Procedures.
smiles,measurement,setting,value
"C=CCc1ccc(O)c(-c2ccc(O)c(CC=C)c2)c1 [product 1, 5,3′-Diallyl-biphenyl-2,4′-diol]",neuroprotective effects via anti-oxidative abilities and antagonist actions against excitotoxicity,[1],able to exert neuroprotective effects
same,"unilateral rotations (apomorphine-induced), subchronic post-treatment, 0.1 mg/kg","[2]; 0.1 mg/kg i.p., 14 consecutive days starting Day 7 after 6-OHDA, FIG. 13",not a low dose of product 1
same,"unilateral rotations (apomorphine-induced), subchronic post-treatment, 0.5 mg/kg","[2]; 0.5 mg/kg i.p., 14 consecutive days starting Day 7 after 6-OHDA, FIG. 13",significantly inhibited unilateral rotations
same,"unilateral rotations (apomorphine-induced), subchronic post-treatment, 1 mg/kg","[2]; 1 mg/kg i.p., 14 consecutive days starting Day 7 after 6-OHDA, FIG. 13",significantly inhibited unilateral rotations
same,"contralateral movements induced by apomorphine, subchronic treatment","[2]; 5 mg/kg or 10 mg/kg i.p. for 14 consecutive days after 6-OHDA injection, FIG. 11",significantly reduced the contralateral movements induced by apomorphine
same,apomorphine-induced rotation behavior after single administration,"[2]; 5 mg/kg or 10 mg/kg i.p. once, 30 minutes before 6-OHDA, tested one week after 6-OHDA, data not shown",did not prevent the apomorphine-induced rotation behavior
same,prevention of cell death (relative cell viability) after exposure to CHP,[3],significantly prevented cell death
